Values quoted from earlier work as cited in patent US7915270B2, “Oxazole ketones as modulators of fatty acid amide hydrolase” (The Scripps Research Institute, priority 2006, dated 2011).

Key:
spasticity = settings: Baker 2001; cited from earlier work
thermal nociception = settings: rat; Kathuria 2003; cited from earlier work
anxiety = settings: rats; Kathuria 2003; cited from earlier work
[1] = rat; Kathuria 2003; cited from earlier work

Row | SMILES | spasticity in CREAE mice (spasticity) | analgesic efficacy in the hot plate test (thermal nociception) | efficacy in the zero plus maze model of anxiety (anxiety) | analgesic efficacy in the formalin test [1]
1 | CCCCCCCCCCCCCCCCS(=O)(=O)F [AM374] | significantly reduce spasticity | – | – | –
2 | NC(=O)c1cccc(-c2cccc(OC(=O)NC3CCCCC3)c2)c1 [URB-597] | – | analgesic efficacy | efficacy | analgesic efficacy
